# Source: patent publication US4894458A, “Quinolonecarboxylic acid derivatives and their preparation” (Kyorin Pharmaceutical Co., Ltd., priority 1986, dated 1990)
# Where two headings read alike, the source gives them in different places.
# Tests used:
# Format in all cases: cell-based
# [1] = system: Bacillus subtilis PCI 219; experiment: In vitro antibacterial activity (aerobic bacteria), MIC
# [2] = system: P. cepacia GIFU 518; experiment: as above; settings: Burkholderia cepacia, GIFU518, aerobic, Gram -, 10^6 cells/ml
# [3] = system: B. fragilis 25285; experiment: In vitro antibacterial activity (anaerobic bacteria), MIC; settings: Bacteroides fragilis
# [4] = system: Bacteroides fragilis GM 7000; experiment: as above
# [5] = system: Citrobacter freundii IID 976; experiment: In vitro antibacterial activity (aerobic bacteria), MIC; settings: Citrobacter freundii
# [6] = system: B. thetaiotaomicron (0661); experiment: In vitro antibacterial activity (anaerobic bacteria), MIC; settings: Bacteroides thetaiotaomicron; anaerobic; Gram -; 10^6 cells/ml; read-out: MIC
# [7] = system: B. fragilis 0558; experiment: as above; settings: Bacteroides fragilis
# [8] = system: Escherichia coli NIHJ JC-2; experiment: In vitro antibacterial activity (aerobic bacteria), MIC; settings: NIHJJC2, aerobic, Gram -, 10^6 cells/ml, read-out: MIC
# [9] = system: P. aeruginosa IFO 12689; experiment: as above; settings: Pseudomonas aeruginosa, IFO12689
# [10] = system: C. ramosum; experiment: In vitro antibacterial activity (anaerobic bacteria), MIC; settings: Thomasclavelia ramosa
# [11] = system: Enterobacter cloacae IID 977; experiment: In vitro antibacterial activity (aerobic bacteria), MIC
# [12] = system: Veillonella parvula KYA 10790; experiment: In vitro antibacterial activity (anaerobic bacteria), MIC
# [13] = system: Peptostreptococcus anaerobius KYA 27337; experiment: as above
# [14] = system: Pst micros UPI 5464-1; experiment: microbe, parasite or virus in culture; settings: anaerobic, Gram +, 10^6 cells/ml
# [15] = system: Fusobacterium necrophorum S-45; experiment: In vitro antibacterial activity (anaerobic bacteria), MIC
# [16] = system: Yersinia enterocolitica IID 981; experiment: microbe, parasite or virus in culture; settings: IID981
# [17] = system: F. varium KYA 8501; experiment: In vitro antibacterial activity (anaerobic bacteria), MIC; settings: Fusobacterium varium, KYA8501
# [18] = system: P. aeruginosa IID 1210; experiment: In vitro antibacterial activity (aerobic bacteria), MIC; settings: Pseudomonas aeruginosa, IID1210, aerobic, Gram -, 10^6 cells/ml
# [19] = system: Peptococcus magnus KY 017; experiment: In vitro antibacterial activity (anaerobic bacteria), MIC; settings: Finegoldia magna, KY017, Gram +, 10^6 cells/ml, read-out: MIC
# Protocol: (§1) Minimal inhibitory concentrations (MICs) were determined in accordance with the method recommended by Japan Society of Chemotherapy.
# [20] = system: B. distasonis 8503; experiment: as above; settings: Parabacteroides distasonis, Gram -, 10^6 cells/ml, read-out: MIC
# [21] = system: Acinetobacter anitratus IID 876; experiment: In vitro antibacterial activity (aerobic bacteria), MIC; settings: Acinetobacter calcoaceticus, IID876, Gram -, 10^6 cells/ml, read-out: MIC
# Protocol: as §1
# [22] = system: S. epidermidis IID 866; experiment: as above; settings: Staphylococcus epidermidis, IID866, Gram +, 10^6 cells/ml
# Protocol: as §1
# [23] = system: E. coli ATCC 10536; experiment: as above; settings: Escherichia coli, ATCC10536, Gram -, 10^6 cells/ml
# Protocol: as §1
# [24] = system: S. aureus IID 670 (Terajima); experiment: as above; settings: Staphylococcus aureus, IID670, Gram +, 10^6 cells/ml
# Protocol: as §1
# [25] = system: Staphylococcus aureus 209 P; experiment: as above; settings: Gram +, 10^6 cells/ml
# Protocol: as §1
# [26] = system: K. pneumoniae 1-220S; experiment: as above; settings: Klebsiella pneumoniae, 1220S, Gram -, 10^6 cells/ml
# Protocol: as §1
# [27] = system: Serratia marcescens IID 618; experiment: as above; settings: IID618, Gram -, 10^6 cells/ml
# Protocol: as §1
# [28] = system: Proteus vulgaris IFO 3167; experiment: as above; settings: IFO3167, Gram -, 10^6 cells/ml
# Protocol: as §1
# [29] = system: Pseudomonas aeruginosa V-1; experiment: as above; settings: Pseudomonas aeruginosa, V1, aerobic; Gram -; 10^6 cells/ml; read-out: MIC
# Protocol: as §1
# [30] = system: Shigella sonnei IID 969; experiment: as above; settings: IID969, Gram -, 10^6 cells/ml
# Protocol: as §1
# [31] = system: Morganella morganii IID 602; experiment: as above; settings: Morganella morganii, IID602, Gram -, 10^6 cells/ml, read-out: MIC
# Protocol: as §1
# [32] = system: P. mirabilis IID 994; experiment: as above; settings: Proteus mirabilis, IID994, Gram -, 10^6 cells/ml
# Protocol: as §1
# [33] = system: P. maltophilia GIFU 2491; experiment: as above; settings: Stenotrophomonas maltophilia, GIFU2491
# [34] = system: Eubacterium lentum GAI 5242; experiment: In vitro antibacterial activity (anaerobic bacteria), MIC; settings: Eggerthella lenta, GAI5242
# [35] = system: C. perfringens KYA 13123; experiment: microbe, parasite or virus in culture; settings: Clostridium perfringens, KYA13123
# [36] = system: Salmonella enteritidis IID 604; experiment: In vitro antibacterial activity (aerobic bacteria), MIC; settings: Salmonella enterica
# [37] = system: Clostridium difficile I-E; experiment: In vitro antibacterial activity (anaerobic bacteria), MIC; settings: Clostridioides difficile
# [38] = system: Propionibacterium acens 11828; experiment: as above; settings: anaerobic, Gram +, 10^6 cells/ml, read-out: MIC
# [39] = system: Alcaligenes faecalis 0114002; experiment: In vitro antibacterial activity (aerobic bacteria), MIC; settings: Alcaligenes faecalis, 0114002, aerobic, Gram -, 10^6 cells/ml
# [40] = system: Klebsiella pneumoniae KY(GN)6445; experiment: as above
# [41] = anaerobic, Gram -, 10^6 cells/ml, read-out: MIC
# [42] = aerobic, Gram -, 10^6 cells/ml, read-out: MIC
# [43] = anaerobic, Gram +, 10^6 cells/ml, read-out: MIC
compound,measurement,setting,value
"Cc1c(N2CCC(N)C2)c(F)cc2c(=O)c(C(=O)O)cn(C3CC3)c12 (centres unmarked) [Exp. 18, 7-(3-Amino-1-pyrrolidinyl)-1-cyclopropyl-6-fluoro-1,4-dihydro-8-methyl-4-oxo-3-quinolinecarboxylic acid]",MIC,"[1]; PCI219, aerobic, Gram +, 10^6 cells/ml, read-out: MIC",0.025 µg/mL
same,MIC,[2]; read-out: MIC,0.2 µg/mL
same,MIC,[3]; [41],0.2 µg/mL
same,MIC,"[4]; GM7000, anaerobic, Gram -, 10^6 cells/ml, read-out: MIC",0.2 µg/mL
same,MIC,"[5]; IID976, aerobic, Gram -, 10^6 cells/ml, read-out: MIC",0.025 µg/mL
same,MIC,[6],0.78 µg/mL
same,MIC,[7]; [41],0.1 µg/mL
same,MIC,[8],≤ 0.0032 µg/mL
same,MIC,[9]; [42],0.2 µg/mL
same,MIC,[10],1.56 µg/mL
same,MIC,"[11]; IID977, aerobic, Gram -, 10^6 cells/ml, read-out: MIC",0.025 µg/mL
same,MIC,"[12]; KYA10790, anaerobic, Gram -, 10^6 cells/ml, read-out: MIC",0.1 µg/mL
same,MIC,"[13]; KYA27337, anaerobic, Gram +, 10^6 cells/ml, read-out: MIC",0.1 µg/mL
same,MIC,[14]; read-out: MIC,0.1 µg/mL
same,MIC,"[15]; S45, anaerobic, Gram -, 10^6 cells/ml, read-out: MIC",0.1 µg/mL
same,MIC,[16],0.05 µg/mL
same,MIC,[17]; [41],0.78 µg/mL
same,MIC,[18]; read-out: MIC,0.2 µg/mL
same,MIC,[19],0.05 µg/mL
same,MIC,[20],0.39 µg/mL
same,MIC,[21],0.05 µg/mL
same,MIC,[22],0.05 µg/mL
same,MIC,[23],0.0125 µg/mL
same,MIC,[24],0.05 µg/mL
same,MIC,[25],0.05 µg/mL
same,MIC,[26],0.05 µg/mL
same,MIC,[27],0.05 µg/mL
same,MIC,[28],0.0125 µg/mL
same,MIC,[29],0.05 µg/mL
same,MIC,[30],0.0125 µg/mL
same,MIC,[31],0.05 µg/mL
same,MIC,[32],0.0125 µg/mL
same,MIC,[33]; [42],0.1 µg/mL
same,MIC,[34]; [43],0.2 µg/mL
same,MIC,[35],0.05 µg/mL
same,MIC,[36]; [42],0.025 µg/mL
same,MIC,[37]; [43],0.78 µg/mL
same,MIC,[38],0.78 µg/mL
same,MIC,[39]; read-out: MIC,0.1 µg/mL
same,MIC,[40]; [42],0.025 µg/mL
"Cc1c(N2CCNCC2)c(F)cc2c(=O)c(C(=O)O)cn(C3CC3)c12 [Exp. 19, 1-Cyclopropyl-6-fluoro-1,4-dihydro-8-methyl-4-oxo-7-(1-piperazinyl)-3-quinolinecarboxylic acid]",MIC,[1]; PCI219,0.05 µg/mL
same,MIC,[2],0.78 µg/mL
same,MIC,[3],0.78 µg/mL
same,MIC,[4]; GM7000,0.78 µg/mL
same,MIC,[5]; IID976,0.05 µg/mL
same,MIC,[6],6.25 µg/mL
same,MIC,[7],0.39 µg/mL
same,MIC,[8],0.125 µg/mL
same,MIC,[9],0.78 µg/mL
same,MIC,[10]; [43],6.25 µg/mL
same,MIC,[11]; IID977,0.05 µg/mL
same,MIC,[12]; KYA10790,0.39 µg/mL
same,MIC,[13]; KYA27337,0.78 µg/mL
same,MIC,[14],0.39 µg/mL
same,MIC,[15]; S45,0.39 µg/mL
same,MIC,[16],0.05 µg/mL
same,MIC,[17],3.13 µg/mL
same,MIC,[18],0.78 µg/mL
same,MIC,[19],0.39 µg/mL
same,MIC,[20],1.56 µg/mL
same,MIC,[21],0.2 µg/mL
same,MIC,[22],0.2 µg/mL
same,MIC,[23],0.05 µg/mL
same,MIC,[24],0.2 µg/mL
same,MIC,[25],0.2 µg/mL
same,MIC,[26],0.05 µg/mL
same,MIC,[27],0.05 µg/mL
same,MIC,[28],0.025 µg/mL
same,MIC,[29],0.1 µg/mL
same,MIC,[30],0.025 µg/mL
same,MIC,[31],0.1 µg/mL
same,MIC,[32],0.025 µg/mL
same,MIC,[33],0.39 µg/mL
same,MIC,[34],0.2 µg/mL
same,MIC,[35],0.2 µg/mL
same,MIC,[36],0.05 µg/mL
same,MIC,[37],3.13 µg/mL
same,MIC,[38],6.25 µg/mL
same,MIC,[39],0.39 µg/mL
same,MIC,[40],0.05 µg/mL
